Data as given in US20250179436A1, “HUMAN FATTY-LIVER MODEL CELLS” (PhoenixBio Co., Ltd., priority 2019, published 2025).

How the values were obtained:
PXB-cells [1] = test: Total neutral fat of lipoproteins in culture supernatant of PXB-cells cultured with or without DMSO; format: cell-based, human; conditions: 2% DMSO, PXB-cells cultured 5 days
Experimental: The following day of seeding, medium A was removed. Instead, 500 μL of medium B (DMSO (+)) or medium C (DMSO (−)) was added. The plate was gently placed in an incubator (37° C., 5% CO2) and the cells were cultured for 5 days. After completion of culture, an image of the cells was taken by a photomicrographic camera. Then, the culture supernatant was recovered and subjected to analysis for lipoprotein in the culture supernatant described below. Lipoproteins contained in the culture supernatants of PXB-cells, HepG2 cells and HuH7 cells were analyzed by using LipoSEARCH (registered trademark) method (Skylight Biotech, Inc.). After completion of the culture mentioned above, the medium used in the culture was removed and 500 μL of medium D for analysis was added. The culture plate was gently placed in an incubator (37° C., 5% CO2) and the cells were cultured for 2 days. Thereafter, the culture supernatant was recovered, lipoproteins contained in the culture supernatant (80 μL) were fractionated into 4 types of subgroups, CM, VLDL, LDL and HDL fractions, by gel filtration HPLC. Cholesterol and neutral fat (triglyceride) contained in individual fractions were quantified by online enzyme reactions. […]

PXB-cells [2] = test: Fat droplets in PXB-cells cultured in medium with or without DMSO (photomicrograph); format: cell-based, human; conditions: 2% DMSO, PXB-cells cultured 5 days
Experimental: The following day of seeding, medium A was removed. Instead, 500 μL of medium B (DMSO (+)) or medium C (DMSO (−)) was added. The plate was gently placed in an incubator (37° C., 5% CO2) and the cells were cultured for 5 days. After completion of culture, an image of the cells was taken by a photomicrographic camera. Then, the culture supernatant was recovered and subjected to analysis for lipoprotein in the culture supernatant described below.

PXB-cells [3] = test: Human albumin content in culture supernatant of PXB-cells (immunoturbidimetric method), toxicity index; format: cell-based; conditions: 2 days
PXB-cells [4] = test: Screening test: total cholesterol and total neutral fat (triglyceride) in culture supernatant of PXB-cells (LipoSEARCH); format: cell-based, human; conditions: lomitapide 1, 10, 100 μM, 2 days; PXB-cells pre-cultured 12 days in medium B (DMSO (+)); vs ethanol control
Experimental: Lipoproteins contained in the culture supernatants of PXB-cells, HepG2 cells and HuH7 cells were analyzed by using LipoSEARCH (registered trademark) method (Skylight Biotech, Inc.).
After completion of the culture mentioned above, the medium used in the culture was removed and 500 μL of medium D for analysis was added. The culture plate was gently placed in an incubator (37° C., 5% CO2) and the cells were cultured for 2 days. Thereafter, the culture supernatant was recovered, lipoproteins contained in the culture supernatant (80 μL) were fractionated into 4 types of subgroups, CM, VLDL, LDL and HDL fractions, by gel filtration HPLC. Cholesterol and neutral fat (triglyceride) contained in individual fractions were quantified by online enzyme reactions. […]
Each test substance was suspended with ethanol and added in a predetermined amount to a PXB-cell culture, gently placed in an incubator (37° C., 5% CO2) and cultured for 2 days. After completion of culture, the total cholesterol and total neutral fat (triglyceride) in culture supernatant and in cells were measured in accordance with the methods described in the sections “Analysis of lipoprotein in culture supernatant” and “Analysis of lipoprotein in cells”. […]

PXB-cells [5] = test: Screening test: total cholesterol and total neutral fat (triglyceride) in PXB-cells (Cholestest); format: cell-based, human; conditions: lomitapide 1, 10, 100 μM, 2 days; PXB-cells pre-cultured 12 days in medium B (DMSO (+)); vs ethanol control
Experimental: Triglyceride in cells was measured by use of Cholestest (registered trademark) TG (Sekisui Medical Co., Ltd.) in accordance with the instruction by the manufacturer. More specifically, the cells were washed with PBS, and then, completely dewatered (stored at −80° C. until measurement). To each well containing the cells, 200 μL of TG enzyme solution (1) was added. A reaction was allowed to proceed while keeping the cells warm at 37° C. for 10 minutes (free glycerol was removed). Then, the cells were torn away by pipetting, transferred to a centrifuge tube and centrifuged at 10,000 rpm×10 minutes. Then, the supernatant (7.5 μL) was transferred to a 96-well microplate. […] The resultant reaction product was subjected to measurement of absorbance at 550 nm. The content of triglyceride was calculated based on HDL-C180A as the reference (triglyceride concentration of HDL-C180A was 52.26 mg/dL).
Intracellular cholesterol was measured by use of Cholestest (registered trademark) CHO (Sekisui Medical Co., Ltd.) in accordance with the instruction by the manufacturer. […] The resultant reaction product was subjected to measurement of absorbance at 550 nm. The content of cholesterol was calculated based on HDL-C180A as the standard ([…] concentration of HDL-C180A was 152.67 mg/dL). […]

With C[S+](C)[O-] [DMSO, dimethyl sulfoxide] the “secretion of total neutral fat (triglyceride) in lipoproteins, medium B (DMSO (+)) relative to medium C (DMSO (−))” value (PXB-cells [1]) was “about 9 times” and the “number of fat droplets, medium B (DMSO (+)) compared to medium C (DMSO (−))” value (PXB-cells [2]) was “about double”.
With CCC(C)(C)C(=O)O[C@H]1C[C@@H](C)C=C2C=C[C@H](C)[C@H](CC[C@@H]3C[C@@H](O)CC(=O)O3)[C@H]21 [simvastatin] the “human albumin content in the culture supernatant” value (PXB-cells [3]; simvastatin 0.1, 1, 10 μM, PXB-cells in medium B (DMSO (+))) was “no significant decrease”.
For O=C(NC1CCN(CCCCC2(C(=O)NCC(F)(F)F)c3ccccc3-c3ccccc32)CC1)c1ccccc1-c1ccc(C(F)(F)F)cc1 [lomitapide], the “total cholesterol content in the culture supernatants” value (PXB-cells [4]) was “significantly decreased”, the “total neutral fat (triglyceride) content in the culture supernatants” value (PXB-cells [4]) was “significantly decreased” and the “total cholesterol content in the cells” value (PXB-cells [5]) was “no significant decrease”. The “total neutral fat (triglyceride) content in the cells” value (PXB-cells [5]) was “no significant decrease”, the “content of human albumin in the culture supernatant” value (PXB-cells [3]; lomitapide 1, 10, 100 μM, PXB-cells in medium B (DMSO (+))) was “decreased depending on the addition amount” and the “toxicity (based on human albumin content)” value (PXB-cells [3]; lomitapide, high amount (1-100 μM tested), PXB-cells) was “toxic”.
